According to paper PMC10938783, “A novel pan-PI3K inhibitor KTC1101 synergizes with anti-PD-1 therapy by targeting tumor suppression and immune activation” (Molecular Cancer, 2024):

Test system: B16 cells gene expression
Experiment: RNA-Seq (DEGs, GSEA, heatmaps) of B16 cells
Conditions: B16 cells, KTC 0.2μM

COc1cc(N)cc2c1nc(C(F)F)n2-c1nc(N2CCCOCC2)nc(N2CCOCC2)n1 [KTC1101, 2-(difluoromethyl)-4-methoxy-1-(4-morpholino-6-(1,4-oxazepan-4-yl)-1,3,5-triazin-2-yl)-1H-benzo[d]imidazol-6-amine]
NES: Platinum drug resistance (GSEA KEGG mmu01524): -1.706
enrichmentScore: Platinum drug resistance (GSEA KEGG mmu01524): -0.4321
NES: Ribosome (GSEA KEGG mmu03010): 2.0791
enrichmentScore: Ribosome (GSEA KEGG mmu03010): 0.5599
NES: Nucleocytoplasmic transport (GSEA KEGG mmu03013): -1.168
enrichmentScore: Nucleocytoplasmic transport (GSEA KEGG mmu03013): -0.2706
NES: DNA replication (GSEA KEGG mmu03030): -1.22
enrichmentScore: DNA replication (GSEA KEGG mmu03030): -0.374
NES: Proteasome (GSEA KEGG mmu03050): -1.869
enrichmentScore: Proteasome (GSEA KEGG mmu03050): -0.5072
NES: PPAR signaling pathway (GSEA KEGG mmu03320): -1.414
enrichmentScore: PPAR signaling pathway (GSEA KEGG mmu03320): -0.3831
NES: Homologous recombination (GSEA KEGG mmu03440): -1.259
enrichmentScore: Homologous recombination (GSEA KEGG mmu03440): -0.3597
NES: MAPK signaling pathway (GSEA KEGG mmu04010): 1.18
enrichmentScore: MAPK signaling pathway (GSEA KEGG mmu04010): 0.3038
NES: ErbB signaling pathway (GSEA KEGG mmu04012): 1.235
enrichmentScore: ErbB signaling pathway (GSEA KEGG mmu04012): 0.3633
NES: Rap1 signaling pathway (GSEA KEGG mmu04015): 1.294
enrichmentScore: Rap1 signaling pathway (GSEA KEGG mmu04015): 0.3507
NES: Calcium signaling pathway (GSEA KEGG mmu04020): 1.795
enrichmentScore: Calcium signaling pathway (GSEA KEGG mmu04020): 0.4973
NES: cGMP-PKG signaling pathway (GSEA KEGG mmu04022): 1.703
enrichmentScore: cGMP-PKG signaling pathway (GSEA KEGG mmu04022): 0.4759
NES: cAMP signaling pathway (GSEA KEGG mmu04024): 1.563
enrichmentScore: cAMP signaling pathway (GSEA KEGG mmu04024): 0.4327
NES: Cytokine-cytokine receptor interaction (GSEA KEGG mmu04060): 1.941
enrichmentScore: Cytokine-cytokine receptor interaction (GSEA KEGG mmu04060): 0.59
NES: Viral protein interaction with cytokine and cytokine receptor (GSEA KEGG mmu04061): 2.1
enrichmentScore: Viral protein interaction with cytokine and cytokine receptor (GSEA KEGG mmu04061): 0.7876
NES: Chemokine signaling pathway (GSEA KEGG mmu04062): 1.837
enrichmentScore: Chemokine signaling pathway (GSEA KEGG mmu04062): 0.514
NES: NF-kappa B signaling pathway (GSEA KEGG mmu04064): 1.257
enrichmentScore: NF-kappa B signaling pathway (GSEA KEGG mmu04064): 0.3844
NES: HIF-1 signaling pathway (GSEA KEGG mmu04066): -1.602
enrichmentScore: HIF-1 signaling pathway (GSEA KEGG mmu04066): -0.3782
NES: Phospholipase D signaling pathway (GSEA KEGG mmu04072): 1.435
enrichmentScore: Phospholipase D signaling pathway (GSEA KEGG mmu04072): 0.4011
NES: Neuroactive ligand-receptor interaction (GSEA KEGG mmu04080): 1.734
enrichmentScore: Neuroactive ligand-receptor interaction (GSEA KEGG mmu04080): 0.5578
NES: Cell cycle (GSEA KEGG mmu04110): -1.229
enrichmentScore: Cell cycle (GSEA KEGG mmu04110): -0.265
NES: Oocyte meiosis (GSEA KEGG mmu04114): -1.291
enrichmentScore: Oocyte meiosis (GSEA KEGG mmu04114): -0.2991
NES: Protein processing in endoplasmic reticulum (GSEA KEGG mmu04141): -1.222
enrichmentScore: Protein processing in endoplasmic reticulum (GSEA KEGG mmu04141): -0.2637
NES: Lysosome (GSEA KEGG mmu04142): -1.281
enrichmentScore: Lysosome (GSEA KEGG mmu04142): -0.2917
NES: Phagosome (GSEA KEGG mmu04145): -1.483
enrichmentScore: Phagosome (GSEA KEGG mmu04145): -0.3503
NES: PI3K-Akt signaling pathway (GSEA KEGG mmu04151): 1.456
enrichmentScore: PI3K-Akt signaling pathway (GSEA KEGG mmu04151): 0.3693
NES: Cellular senescence (GSEA KEGG mmu04218): 1.209
enrichmentScore: Cellular senescence (GSEA KEGG mmu04218): 0.3231
NES: Cardiac muscle contraction (GSEA KEGG mmu04260): 1.313
enrichmentScore: Cardiac muscle contraction (GSEA KEGG mmu04260): 0.4187
NES: Adrenergic signaling in cardiomyocytes (GSEA KEGG mmu04261): 1.264
enrichmentScore: Adrenergic signaling in cardiomyocytes (GSEA KEGG mmu04261): 0.3566
NES: Wnt signaling pathway (GSEA KEGG mmu04310): 1.195
enrichmentScore: Wnt signaling pathway (GSEA KEGG mmu04310): 0.334
NES: Notch signaling pathway (GSEA KEGG mmu04330): 1.378
enrichmentScore: Notch signaling pathway (GSEA KEGG mmu04330): 0.4468
NES: Hedgehog signaling pathway (GSEA KEGG mmu04340): -1.456
enrichmentScore: Hedgehog signaling pathway (GSEA KEGG mmu04340): -0.4001
NES: TGF-beta signaling pathway (GSEA KEGG mmu04350): 1.497
enrichmentScore: TGF-beta signaling pathway (GSEA KEGG mmu04350): 0.4579
NES: VEGF signaling pathway (GSEA KEGG mmu04370): -1.413
enrichmentScore: VEGF signaling pathway (GSEA KEGG mmu04370): -0.3829
NES: Apelin signaling pathway (GSEA KEGG mmu04371): 1.504
enrichmentScore: Apelin signaling pathway (GSEA KEGG mmu04371): 0.4209
NES: Osteoclast differentiation (GSEA KEGG mmu04380): 1.356
enrichmentScore: Osteoclast differentiation (GSEA KEGG mmu04380): 0.3943
NES: Hippo signaling pathway (GSEA KEGG mmu04390): 1.527
enrichmentScore: Hippo signaling pathway (GSEA KEGG mmu04390): 0.4244
NES: Focal adhesion (GSEA KEGG mmu04510): 1.45
enrichmentScore: Focal adhesion (GSEA KEGG mmu04510): 0.3877
NES: ECM-receptor interaction (GSEA KEGG mmu04512): 1.51
enrichmentScore: ECM-receptor interaction (GSEA KEGG mmu04512): 0.4857
NES: Gap junction (GSEA KEGG mmu04540): 1.307
enrichmentScore: Gap junction (GSEA KEGG mmu04540): 0.3903
NES: Complement and coagulation cascades (GSEA KEGG mmu04610): 1.788
